Assay results as given in article PMC9090415, “Discovery of small molecule inhibitors of Plasmodium falciparum apicoplast DNA polymerase” (Journal of Enzyme Inhibition and Medicinal Chemistry, 2022).

Target: P. falciparum apicoplast DNA polymerase (Pf-apPOL) (Plasmodium falciparum, UniProt Q8ILY1)
Test: Fluorescence-based high-throughput DNA polymerase assay (molecular beacon), primary screen and dose-response
Format: biochemical
Method in brief: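 Single-point screening used 10 µM compound with 20 nM polymerase, 20 nM hairpin substrate and 6 µM dNTPs for 90 min at 25 °C. Confirmatory titrations (2.5–80 µM) followed fluorescence at three times, and IC50 was derived from a fit including a cooperativity term n.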

[1] = primary screen value of the 186 hits; unit not given; 90 min, 10 µM

Sequence of P. falciparum apicoplast DNA polymerase (Pf-apPOL) (Q8ILY1 entry or part of it): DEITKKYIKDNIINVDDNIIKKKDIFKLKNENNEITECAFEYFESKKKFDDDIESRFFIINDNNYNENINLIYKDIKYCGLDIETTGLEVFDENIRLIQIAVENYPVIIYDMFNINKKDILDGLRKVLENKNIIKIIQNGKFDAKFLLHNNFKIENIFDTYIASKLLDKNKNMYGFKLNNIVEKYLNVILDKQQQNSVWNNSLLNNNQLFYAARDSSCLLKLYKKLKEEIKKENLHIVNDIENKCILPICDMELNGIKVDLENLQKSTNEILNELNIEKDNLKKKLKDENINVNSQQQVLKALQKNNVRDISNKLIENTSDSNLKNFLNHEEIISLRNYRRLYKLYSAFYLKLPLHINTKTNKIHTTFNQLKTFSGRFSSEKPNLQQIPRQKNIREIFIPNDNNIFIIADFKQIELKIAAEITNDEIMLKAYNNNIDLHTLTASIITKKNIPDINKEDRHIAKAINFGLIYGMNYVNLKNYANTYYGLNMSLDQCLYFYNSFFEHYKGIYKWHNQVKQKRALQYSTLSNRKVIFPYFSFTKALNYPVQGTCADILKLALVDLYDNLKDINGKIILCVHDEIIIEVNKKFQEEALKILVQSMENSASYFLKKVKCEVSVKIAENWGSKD

## CCCN1COc2ccc3c(=O)c(-c4ccccc4)coc3c2C1 [KU0199556]
DRC-1; concentration 2.5; 10'
  % inhibition Apo pol 10': 3.335%
DRC-1; concentration 2.5; 90'
  % inhibition Apol 90': 6.953%
DRC-1; concentration 2.5; 180'
  % inhibition apPOL 180': 12.8227%
DRC-1; concentration 5; 10'
  % inhibition Apo pol 10': 0.6816%
DRC-1; concentration 5; 90'
  % inhibition Apol 90': 8.234%
DRC-1; concentration 5; 180'
  % inhibition apPOL 180': 17.5775%
DRC-1; concentration 10; 10'
  % inhibition Apo pol 10': 12.2491%
DRC-1; concentration 10; 90'
  % inhibition Apol 90': 22.7546%
DRC-1; concentration 10; 180'
  % inhibition apPOL 180': 37.4083%
DRC-1; concentration 20; 10'
  % inhibition Apo pol 10': 29.2216%
DRC-1; concentration 20; 90'
  % inhibition Apol 90': 42.6091%
DRC-1; concentration 20; 180'
  % inhibition apPOL 180': 58.6511%
DRC-1; concentration 40; 10'
  % inhibition Apo pol 10': 57.482%
DRC-1; concentration 40; 90'
  % inhibition Apol 90': 69.5557%
DRC-1; concentration 40; 180'
  % inhibition apPOL 180': 84.4582%
DRC-1; concentration 80 (unit not given); 10'
  % inhibition Apo pol 10': 71.548%
DRC-1; concentration 80; 90'
  % inhibition Apol 90': 77.7995%
DRC-1; concentration 80; 180'
  % inhibition apPOL 180': 92.1066%
DRC-2; 5'; concentration 80
  % inhibition Apo pol 5': 51%
DRC-2; 40'; concentration 80
  % inhibition Apol 40': 51%
DRC-2; 90'; concentration 20
  % inhibition ApPOL 90': 39%
DRC-2; 90'; concentration 40
  % inhibition ApPOL 90': 51%
DRC-2; 180'; concentration 80
  % inhibition apPOL 180': 39%
DRC-2; concentration 2.5; 5'
  % inhibition Apo pol 5': 7.48%
DRC-2; concentration 2.5; 40'
  % inhibition Apol 40': 5%
DRC-2; concentration 2.5; 90'
  % inhibition ApPOL 90': 3.57%
DRC-2; concentration 2.5; 180'
  % inhibition apPOL 180': -2.43%
DRC-2; concentration 5; 5'
  % inhibition Apo pol 5': 10%
DRC-2; concentration 5; 40'
  % inhibition Apol 40': 0.118%
DRC-2; concentration 5; 90'
  % inhibition ApPOL 90': -8%
DRC-2; concentration 5; 180'
  % inhibition apPOL 180': -84%
DRC-2; concentration 10; 5'
  % inhibition Apo pol 5': 25%
DRC-2; concentration 10; 40'
  % inhibition Apol 40': 23%
DRC-2; concentration 10; 90'
  % inhibition ApPOL 90': 20%
DRC-2; concentration 10; 180'
  % inhibition apPOL 180': 6.45%
DRC-2; concentration 20; 5'
  % inhibition Apo pol 5': 41%
DRC-2; concentration 20; 40'
  % inhibition Apol 40': 42%
DRC-2; concentration 20; 90'
  % inhibition ApPOL 90': 39%
DRC-2; concentration 20; 180'
  % inhibition apPOL 180': 22%
DRC-2; concentration 40; 5'
  % inhibition Apo pol 5': 52%
DRC-2; concentration 40; 40'
  % inhibition Apol 40': 55%
DRC-2; concentration 40; 90'
  % inhibition ApPOL 90': 51%
DRC-2; concentration 40; 180'
  % inhibition apPOL 180': 38%
DRC-2; concentration 80; 5'
  % inhibition Apo pol 5': 51%
DRC-2; concentration 80; 40'
  % inhibition Apol 40': 51%
DRC-2; concentration 80; 90'
  % inhibition ApPOL 90': 48%
DRC-2; concentration 80; 180'
  % inhibition apPOL 180': 39%
[1]
  DNA Pol: 28
Primary screen value; head prints only 'DNA Pol'; 90 min, 10 µM
  DNA Pol: 28

## O=C(NCC1CCN(C2CCCC2)CC1)C(=O)NC1CCCC1 [KU0199596]
DRC-1; 10'; concentration 2.5
  % inhibition Apo pol 10': 0.01298%
DRC-1; 10'; concentration 5
  % inhibition Apo pol 10': -3.723%
DRC-1; 10'; concentration 10
  % inhibition Apo pol 10': 11.8369%
DRC-1; 10'; concentration 20
  % inhibition Apo pol 10': 30.2117%
DRC-1; 10'; concentration 40
  % inhibition Apo pol 10': 52.3157%
DRC-1; 10'; concentration 80
  % inhibition Apo pol 10': 62.5585%
DRC-1; 90'; concentration 2.5
  % inhibition Apol 90': 3.739%
DRC-1; 90'; concentration 5
  % inhibition Apol 90': 4.197%
DRC-1; 90'; concentration 10
  % inhibition Apol 90': 23.1731%
DRC-1; 90'; concentration 20
  % inhibition Apol 90': 45.2225%
DRC-1; 90'; concentration 40
  % inhibition Apol 90': 64.9359%
DRC-1; 90'; concentration 80
  % inhibition Apol 90': 71.081%
DRC-1; 180'; concentration 2.5
  % inhibition apPOL 180': 10.6167%
DRC-1; 180'; concentration 5
  % inhibition apPOL 180': 16.0151%
DRC-1; 180'; concentration 10
  % inhibition apPOL 180': 39.3373%
DRC-1; 180'; concentration 20
  % inhibition apPOL 180': 63.8149%
DRC-1; 180'; concentration 40
  % inhibition apPOL 180': 81.7381%
DRC-1; 180'; concentration 80
  % inhibition apPOL 180': 87.3658%
DRC-2; 5'; concentration 2.5
  % inhibition Apo pol 5': 6%
DRC-2; 5'; concentration 5
  % inhibition Apo pol 5': 9%
DRC-2; 5'; concentration 10
  % inhibition Apo pol 5': 24%
DRC-2; 5'; concentration 20
  % inhibition Apo pol 5': 35%
DRC-2; 5'; concentration 40
  % inhibition Apo pol 5': 45%
DRC-2; 5'; concentration 80
  % inhibition Apo pol 5': 45%
DRC-2; 40'; concentration 2.5
  % inhibition Apol 40': 2.8%
DRC-2; 40'; concentration 5
  % inhibition Apol 40': -3%
DRC-2; 40'; concentration 10
  % inhibition Apol 40': 21%
DRC-2; 40'; concentration 20
  % inhibition Apol 40': 34%
DRC-2; 40'; concentration 40
  % inhibition Apol 40': 44%
DRC-2; 40'; concentration 80
  % inhibition Apol 40': 41%
DRC-2; 90'; concentration 2.5
  % inhibition ApPOL 90': 2.29%
DRC-2; 90'; concentration 5
  % inhibition ApPOL 90': -11%
DRC-2; 90'; concentration 10
  % inhibition ApPOL 90': 19%
DRC-2; 90'; concentration 20
  % inhibition ApPOL 90': 30%
DRC-2; 90'; concentration 40
  % inhibition ApPOL 90': 40%
DRC-2; 90'; concentration 80
  % inhibition ApPOL 90': 39%
DRC-2; 180'; concentration 2.5
  % inhibition apPOL 180': -0.788%
DRC-2; 180'; concentration 5
  % inhibition apPOL 180': -84%
DRC-2; 180'; concentration 10
  % inhibition apPOL 180': 8%
DRC-2; 180'; concentration 20
  % inhibition apPOL 180': 16%
DRC-2; 180'; concentration 40
  % inhibition apPOL 180': 30%
DRC-2; 180'; concentration 80
  % inhibition apPOL 180': 34%
conc. 20; 40'; DRC-2
  % inhibition Apol 40': 34%
conc. 20; 90'; DRC-2
  % inhibition ApPOL 90': 30%
conc. 40; 5'; DRC-2
  % inhibition Apo pol 5': 45%
conc. 40; 180'; DRC-2
  % inhibition apPOL 180': 30%
conc. 80; 5'; DRC-2
  % inhibition Apo pol 5': 45%
conc. 80; 180'; DRC-2
  % inhibition apPOL 180': 34%
Primary screen value by plate and well; 90 min, 10 µM
  DNA Pol: 24
[1]
  DNA Pol: 24
